Results from patent US20130244999A1, “Substituted Heterocyclic Compounds” (Incyte Corporation, priority 2008, published 2013).

Each molecule was assayed against T1, histamine H4 receptor (Homo sapiens, UniProt Q9H3N8) (assay: Inhibition of histamine H4 receptor (Table A1; H4 membrane binding assay)). Conditions: not given.
T1 construct: expressed in transfected cells; host or cells: HEK293SFM cells (membrane preparation)
In short: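 Membranes came from recombinant HEK293SFM cells expressing human H4, homogenized in 50 mM Tris-HCl pH 7.5 with protease inhibitors. Nonspecific binding was set with 1000× unlabeled ligand. Bound radioligand was separated on PEI-treated GF/B filters and counted by liquid scintillation.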

T1 sequence (Q9H3N8 whole entry): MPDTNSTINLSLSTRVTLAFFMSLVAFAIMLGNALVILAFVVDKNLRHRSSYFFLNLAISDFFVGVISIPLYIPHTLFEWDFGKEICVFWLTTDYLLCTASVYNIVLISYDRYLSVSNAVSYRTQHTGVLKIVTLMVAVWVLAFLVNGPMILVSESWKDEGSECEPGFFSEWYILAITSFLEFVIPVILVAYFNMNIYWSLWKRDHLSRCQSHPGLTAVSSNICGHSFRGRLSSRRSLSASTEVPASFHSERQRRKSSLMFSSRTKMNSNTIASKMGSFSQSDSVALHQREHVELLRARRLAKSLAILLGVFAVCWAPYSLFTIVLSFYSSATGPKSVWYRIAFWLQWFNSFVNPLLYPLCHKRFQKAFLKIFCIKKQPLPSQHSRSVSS

In order of rising inhibition at 1 µM:
1. CN1CCN(c2cc(N3CCc4ccc(-c5cnc(N6CCN(C(=O)OC(C)(C)C)CC6)nc5)cc4C3)nc(N)n2)CC1 [Example 8, tert-Butyl 4-(5-{2-[2-amino-6-(4-methylpiperazin-1-yl)pyrimidin-4-yl]-1,2,3,4-tetrahydroisoquinolin-7-yl}pyrimidin-2-yl)piperazine-1-carboxylate]  35%
2. CC1Cc2ccc(-c3ccc(C(=O)N4CCCC4)nc3)cc2CN1c1cc(N2CCN(C)CC2)nc(N)n1 (single isomer, unassigned) [Example 55B, 4-(4-methylpiperazin-1-yl)-6-[3-methyl-7-[6-(pyrrolidin-1-ylcarbonyl)pyridin-3-yl]-3,4-dihydroisoquinolin-2(1H)-yl]pyrimidin-2-amine]  65%

Same assay, conditions: histamine H4 receptor; "> a" = exceeds experiment limit

First: CNC(=O)c1csc(-c2ccc3c(c2)CN(c2cc(N4CCN(C)CC4)nc(N)n2)CC3)n1 [Example 47, 2-{2-[2-Amino-6-(4-methylpiperazin-1-yl)pyrimidin-4-yl]-1,2,3,4-tetrahydroisoquinolin-7-yl}-N-methyl-1,3-thiazole-4-carboxamide]
Second: CC(=O)Nc1ccc(-c2ccc3c(c2)CN(c2cc(N4CCN(C)CC4)nc(N)n2)CC3)cn1 [Example 3, N-(5-{2-[2-Amino-6-(4-methylpiperazin-1-yl)pyrimidin-4-yl]-1,2,3,4-tetrahydroisoquinolin-7-yl}pyridin-2-yl)acetamide]
The IC50 of the first is 4.1-fold higher: 127 nM for the first, 31 nM for the second.

First: CC1Cc2ccc(-c3cnn(C4CCS(=O)(=O)C4)c3)cc2CN1c1cc(N2CCN(C)CC2)nc(N)n1 (single isomer, unassigned) [Example 98A, 4-[7-[1-(1,1-dioxidotetrahydro-3-thienyl)-1H-pyrazol-4-yl]-3-methyl-3,4-dihydroisoquinolin-2(1H)-yl]-6-(4-methylpiperazin-1-yl)pyrimidin-2-amine]
Second: CC1Cc2ccc(-c3cnn(CC4CCCC4)c3)cc2CN1c1cc(N2CCN(C)CC2)nc(N)n1 (single isomer, unassigned) [Example 109, 4-[7-[1-(Cyclopentylmethyl)-1H-pyrazol-4-yl]-3-methyl-3,4-dihydroisoquinolin-2(1H)-yl]-6-(4-methylpiperazin-1-yl)pyrimidin-2-amine]
The IC50 of the first is 4.2-fold lower: 24 nM for the first, 100 nM for the second.

`CC1Cc2ccc(-c3cc(C(=O)N(C)C)n(C)c3)cc2CN1c1cc(N2CCN(C)CC2)nc(N)n1` (single isomer, unassigned) [Example 89A, 4-{2-[2-Amino-6-(4-methylpiperazin-1-yl)pyrimidin-4-yl]-3-methyl-1,2,3,4-tetrahydroisoquinolin-7-yl}-N,1N,1-trimethyl-1H-pyrrole-2-carboxamide] and `CC1Cc2ccc(-c3cc(C(=O)N(C)CCN(C)C)n(C)c3)cc2CN1c1cc(N2CCN(C)CC2)nc(N)n1` (single isomer, unassigned) [Example 93, 4-{2-[2-Amino-6-(4-methylpiperazin-1-yl)pyrimidin-4-yl]-3-methyl-1,2,3,4-tetrahydroisoquinolin-7-yl}-N-[2-(dimethylamino)ethyl]-N,1-dimethyl-1H-pyrrole-2-carboxamide] are within 1.5-fold of each other in IC50: 26 nM for the first, 24 nM for the second.

`CC1Cc2ccc(-c3cnn(C)c3)cc2CN1c1cc(N2CCC(N)CC2)nc(N)n1` (stereo not shown) [Example 120, 4-(4-Aminopiperidin-1-yl)-6-[3-methyl-7-(1-methyl-1H-pyrazol-4-yl)-3,4-dihydroisoquinolin-2 (1H)-yl]pyrimidin-2-amine] and `CC(C#N)Cn1cc(-c2ccc3c(c2)CN(c2cc(N4CCN(C)CC4)nc(N)n2)C(C)C3)cn1` (single isomer, unassigned) [Example 101, 3-(4-{2-[2-Amino-6-(4-methylpiperazin-1-yl)pyrimidin-4-yl]-3-methyl-1,2,3,4-tetrahydroisoquinolin-7-yl}-1H-pyrazol-1-yl)-2-methylpropanenitrile] are within 1.5-fold of each other in IC50: 40 nM for the first, 34 nM for the second.

First: CC1Cc2ccc(-c3ccc(C(=O)NCCO)nc3)cc2CN1c1cc(N2CCN(C)CC2)nc(N)n1 (stereo not shown) [Example 59, 5-{2-[2-Amino-6-(4-methylpiperazin-1-yl)pyrimidin-4-yl]-3-methyl-1,2,3,4-tetrahydroisoquinolin-7-yl}-N-(2-hydroxyethyl)pyridine-2-carboxamide]
Second: CC1Cc2ccc(-c3ccc(C(=O)N4CC(O)C4)nc3)cc2CN1c1cc(N2CCN(C)CC2)nc(N)n1 (single isomer, unassigned) [Example 60, 1-[(5-{2-[2-Amino-6-(4-methylpiperazin-1-yl)pyrimidin-4-yl]-3-methyl-1,2,3,4-tetrahydroisoquinolin-7-yl}pyridin-2-yl)carbonyl]azetidin-3-ol]
The IC50 of the first is 2.4-fold lower: 54 nM for the first, 130 nM for the second.

First: CC1Cc2ccc(-c3ccn(Cc4cccnc4)n3)cc2CN1c1cc(N2CCN(C)CC2)nc(N)n1 (single isomer, unassigned) [Example 156, 4-(4-Methylpiperazin-1-yl)-6-[3-methyl-7-[1-(pyridin-3-ylmethyl)-1H-pyrazol-3-yl]-3,4-dihydroisoquinolin-2(1H)-yl]pyrimidin-2-amine]
Second: CC1Cc2ccc(-c3cnc4[nH]cnc4c3)cc2CN1c1cc(N2CCN(C)CC2)nc(N)n1 (stereo not shown) [Example 135, 4-[7-(3H-Imidazo[4,5-b]pyridin-6-yl)-3-methyl-3,4-dihydroisoquinolin-2(1H)-yl]-6-(4-methylpiperazin-1-yl)pyrimidin-2-amine]
The IC50 of the first is 5.5-fold lower: 8.7 nM for the first, 48 nM for the second.

`CC1Cc2ccc(-c3ccnc(C(=O)N4CC[C@H](F)C4)c3)cc2CN1c1cc(N2CCN(C)CC2)nc(N)n1` (single isomer, unassigned) [Example 66B] and `CC1Cc2ccc(-c3ccnc(C(=O)N(C)C)c3)cc2CN1c1cc(N2CCN(C)CC2)nc(N)n1` (single isomer, unassigned) [Example 61B, 4-{2-[2-amino-6-(4-methylpiperazin-1-yl)pyrimidin-4-yl]-3-methyl-1,2,3,4-tetrahydroisoquinolin-7-yl}-N,N-dimethylpyridine-2-carboxamide] are within 1.5-fold of each other in IC50: 57 nM for the first, 64 nM for the second.

Going from `CC1Cc2ccc(C3CCN(C(=O)C4CC4)CC3)cc2CN1c1cc(N2CCN(C)CC2)nc(N)n1` (stereo not shown) [Example 150, 4-[7-[1-(Cyclopropylcarbonyl)piperidin-4-yl]-3-methyl-3,4-dihydroisoquinolin-2(1H)-yl]-6-(4-methylpiperazin-1-yl)pyrimidin-2-amine] to `CNC(=O)N1CCC(c2ccc3c(c2)CN(c2cc(N4CCN(C)CC4)nc(N)n2)C(C)C3)CC1` (stereo not shown) [Example 151, 4-{2-[2-Amino-6-(4-methylpiperazin-1-yl)pyrimidin-4-yl]-3-methyl-1,2,3,4-tetrahydroisoquinolin-7-yl}-N-methylpiperidine-1-carboxamide], the IC50 rises from 22.5 nM to 42.1 nM (1.9-fold).

Compared with `CN1CCN(c2cc(N3CCc4ccc(-c5cnn(C6CCN(C(=O)OC(C)(C)C)CC6)c5)cc4C3)nc(N)n2)CC1` [Example 12, tert-Butyl 4-(4-{2-[2-amino-6-(4-methylpiperazin-1-yl)pyrimidin-4-yl]-1,2,3,4-tetrahydroisoquinolin-7-yl}-1H-pyrazol-1-yl)piperidine-1-carboxylate], `CN1CCN(c2cc(N3CCc4ccc(-c5cnc(N6CCN(C(=O)OC(C)(C)C)CC6)nc5)cc4C3)nc(N)n2)CC1` [Example 8, tert-Butyl 4-(5-{2-[2-amino-6-(4-methylpiperazin-1-yl)pyrimidin-4-yl]-1,2,3,4-tetrahydroisoquinolin-7-yl}pyrimidin-2-yl)piperazine-1-carboxylate] is higher in IC50: 489 nM for the first, greater than 1000 nM for the second.

Going from `CN1CCN(c2cc(N3CCc4ccc(N5CCN(C(=O)Nc6ccc(Cl)cc6)CC5)cc4C3)nc(N)n2)CC1` [Example 33, 4-{2-[2-Amino-6-(4-methylpiperazin-1-yl)pyrimidin-4-yl]-1,2,3,4-tetrahydroisoquinolin-7-yl}-N-(4-chlorophenyl)piperazine-1-carboxamide] to `CN1CCN(c2cc(N3CCc4ccc(-c5ccn(C)c(=O)c5)cc4C3)nc(N)n2)CC1` [Example 43, 4-{2-[2-Amino-6-(4-methylpiperazin-1-yl)pyrimidin-4-yl]-1,2,3,4-tetrahydroisoquinolin-7-yl}-1-methylpyridin-2(1H)-one], the IC50 falls from 266 nM to 99 nM (2.7-fold). The second is the more potent here.

`CC1Cc2ccc(-c3ccc(C(=O)N4CC(C#N)C4)nc3)cc2CN1c1cc(N2CCN(C)CC2)nc(N)n1` (single isomer, unassigned) [Example 54A, 1-[(5-{2-[2-amino-6-(4-methylpiperazin-1-yl)pyrimidin-4-yl]-3-methyl-1,2,3,4-tetrahydroisoquinolin-7-yl}pyridin-2-yl)carbonyl]azetidine-3-carbonitrile] and `CC1Cc2ccc(-c3cnc(C(=O)N4CC(O)C4)nc3)cc2CN1c1cc(N2CCN(C)CC2)nc(N)n1` (single isomer, unassigned) [Example 78, 1-[(5-{2-[2-Amino-6-(4-methylpiperazin-1-yl)pyrimidin-4-yl]-3-methyl-1,2,3,4-tetrahydroisoquinolin-7-yl}pyrimidin-2-yl)carbonyl]azetidin-3-ol] are within 1.5-fold of each other in IC50: 99 nM for the first, 135 nM for the second.

Compared with `CC1Cc2ccc(-c3ccc(C(=O)N4CC(C#N)C4)nc3)cc2CN1c1cc(N2CCN(C)CC2)nc(N)n1` (single isomer, unassigned) [Example 54B, 1-[(5-{2-[2-amino-6-(4-methylpiperazin-1-yl)pyrimidin-4-yl]-3-methyl-1,2,3,4-tetrahydroisoquinolin-7-yl}pyridin-2-yl)carbonyl]azetidine-3-carbonitrile], `CCNC(=O)c1ncc(-c2ccc3c(c2)CN(c2cc(N4CCN(C)CC4)nc(N)n2)C(C)C3)cn1` (single isomer, unassigned) [Example 77, 5-{2-[2-Amino-6-(4-methylpiperazin-1-yl)pyrimidin-4-yl]-3-methyl-1,2,3,4-tetrahydroisoquinolin-7-yl}-N-ethylpyrimidine-2-carboxamide] is 3.1-fold higher in IC50: 48 nM for the first, 149 nM for the second.

Compared with `CNC(=O)Cn1cc(-c2ccc3c(c2)CN(c2cc(N4CCN(C)CC4)nc(N)n2)C(C)C3)cn1` (stereo not shown) [Example 79, 2-(4-{2-[2-Amino-6-(4-methylpiperazin-1-yl)pyrimidin-4-yl]-3-methyl-1,2,3,4-tetrahydroisoquinolin-7-yl}-1H-pyrazol-1-yl)-N-methylacetamide], `CC1Cc2ccc(C3CCN(S(C)(=O)=O)CC3)cc2CN1c1cc(N2CCN(C)CC2)nc(N)n1` (stereo not shown) [Example 148, 4-[3-Methyl-7-[1-(methylsulfonyl)piperidin-4-yl]-3,4-dihydroisoquinolin-2(1H)-yl]-6-(4-methylpiperazin-1-yl)pyrimidin-2-amine] is 3.5-fold lower in IC50: 108 nM for the first, 30.6 nM for the second. The second is the more potent here.
